Data reported in BindingDB's records for doi:10.1016/j.bmc.2011.12.062 (The Ohio State University College of Medicine, 2012).

Assay: Displacement of thioflavin T from insulin amyloid fibrils by thioflavin-T fluorescent dye assay

IC50 [nM] | SMILES
120 | CCCCCCC[n+]1c(/C=C/c2ccc(N(CC)CC)cc2)sc2ccccc21
90 | CCCCCCC[n+]1c(/C=C/c2ccc(N(CCCC)CCCC)cc2)sc2ccccc21
5.2 | CN(C)c1ccc(/C=C/c2sc3ccc(Cl)cc3[n+]2C)cc1
7.5 | Cc1ccc2sc(/C=C/c3ccc(N(C)C)cc3)[n+](C)c2c1
6 | Cc1ccc2c(c1)sc(/C=C/c1ccc(N(C)C)cc1)[n+]2C
12 | CN(C)c1ccc(/C=C/c2sc3ccccc3[n+]2Cc2ccccc2)cc1
32 | CN(C)c1ccc(/C=C/c2sc3ccc(F)cc3[n+]2Cc2ccccc2)cc1
40 | CCCCCCC[n+]1c(/C=C/c2ccc(N(C)C)cc2)sc2cc(OC)ccc21
42 | CN(C)c1ccc(/C=C/c2sc3ccccc3[n+]2Cc2ccc(F)cc2)cc1
80 | CN(C)c1ccc(/C=C/c2sc3ccccc3[n+]2Cc2ccccc2-c2ccccc2)cc1
80 | CN(C)c1ccc(/C=C/c2sc3ccccc3[n+]2C/C=C/c2ccccc2)cc1
210 | CN(C)c1ccc(/C=C/c2sc3ccccc3[n+]2CCCC(c2ccccc2)c2ccccc2)cc1
52 | CN(C)c1ccc(/C=C/c2sc3ccccc3[n+]2CCCOCc2ccccc2)cc1
42 | CCCCCCC[n+]1c(/C=C/c2ccc(-n3cccc3)cc2)sc2ccccc21
13 | CN(C)c1ccc(/C=C/c2sc3ccccc3[n+]2Cc2ccc3ccccc3c2)cc1
26 | COc1ccc2c(c1)sc(/C=C/c1ccc(N(C)C)c3ccccc13)[n+]2C

The remaining lines, values behind:

SMILES | IC50 [nM]
CN(C)c1ccc(/C=C/c2sc3ccccc3[n+]2CCCCCOc2ccccc2)cc1 | 80
CC[n+]1c(/C=C/c2ccc(N(C)C)cc2)sc2ccccc21 | 6
CN(C)c1ccc(/C=C/c2sc3cc([N+](=O)[O-])ccc3[n+]2C)cc1 | 12
CN(C)c1ccc(/N=N/c2nc3ccccc3s2)cc1 | 1200
COc1ccc2nc(/N=N/c3ccc(N(C)C)cc3)sc2c1 | 700
CN(C)c1ccc(/N=N/c2nc3ccc(Cl)cc3s2)cc1 | 1300
COc1ccc2c(c1)sc(/N=N/c1ccc(N(C)C)cc1)[n+]2C | 10
CN(C)c1ccc(/N=N/c2sc3ccccc3[n+]2C)cc1 | 60
CCCC[n+]1c(/C=C/c2ccc(N(C)C)cc2)sc2ccccc21 | 27
CCCCCCC[n+]1c(/C=C/c2ccc(N(C)C)cc2)sc2ccccc21 | 83
Cc1ccc2c(c1)sc(/C=C/c1ccc(N(C)C)cc1)[n+]2Cc1ccccc1 | 50
CN(C)c1ccc(/C=C/c2sc3ccccc3[n+]2Cc2ccc(-c3ccccc3)cc2)cc1 | 34
CN(C)c1ccc(/C=C/c2sc3ccccc3[n+]2Cc2cccc(Oc3ccccc3)c2)cc1 | 180
CN(C)c1ccc(/C=C/c2sc3c(Cc4ccccc4)c(Cc4ccccc4)ccc3[n+]2C)cc1 | 41
CCCCCCC[n+]1c(/C=C/c2ccc(N(C)C)c3ccccc23)sc2ccccc21 | 40
Nc1ccc(/N=N/c2nc3ccccc3s2)c2ccccc12 | 130
COc1ccc2nc(/N=N/c3ccc(N(C)C)c4ccccc34)sc2c1 | 340
CN(C)c1ccc(/C=C/c2sc3ccc(Cc4ccccc4)c(Cc4ccccc4)c3[n+]2C)cc1 | 41
CN(C)c1ccc(/C=C/c2nc3cc(Cl)ccc3s2)cc1 | > 100000
